Data reported in ChEMBL document CHEMBL1201862, “PubChem BioAssay data set” (2004).
Activity calls are given as the source filed them.

Tests used:
[1] = inhibitors of SNCA 5'UTR-driven reporter translation, confirmation, H4 neuroglioma cells, luminescence (AID 1988); format: functional, cell-based
[2] = inhibitors of firefly luciferase expression or activity, dose response, H4 neuroglioma cells, luminescence (AID 1990); format: functional, cell-based
[3] = Luminescence Cell-Based Dose Response HTS to Identify Inhibitors of 5'UTR Stem-Loop Driven Prion Protein mRNA Translation in H4 Neuroglioblastoma Cells. [Related pubchem assays: 1827 (Project Summary), 1813 (Primary HTS)]; format: functional
[4] = Luminescence Cell-Based Dose Confirmation HTS to Identify Activators of 5'UTR Stem-Loop Driven Alpha-Synuclein mRNA Translation in H4 Neuroglioblastoma Cells. [Related pubchem assays: 1829 (Project Summary), 1814 (Primary HTS)]; format: functional
[5] = Luminescence Cell-Based Dose Response HTS to Identify Activators of Luciferase Translation or Activity in H4 […] Cells. [Related pubchem assays: 1829 (Project Summary), 1814 (Primary HTS)]; format: functional
[6] = tested on: H4; test: Luminescence Cell-Based Dose Response HTS to Identify Activators of 5'UTR Stem-Loop Driven Prion Protein mRNA Translation in H4 Neuroglioblastoma Cells. [Related pubchem assays: 1829 (Project Summary), 1814 (Primary HTS)]; format: functional; details: Homo sapiens
[7] = biological target: Cytochrome P450 2C9 (Homo sapiens, UniProt P11712)
[8] = biological target: Cytochrome P450 3A4 (Homo sapiens, UniProt P08684);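 further: CYP3A4 tested as one member of a cytochrome P450 panel screen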
[9] = biological target: T1, Zinc finger protein mex-5 (Caenorhabditis elegans, UniProt Q9XUB2); test: MEX-5/TCR-2 RNA interaction inhibitors, dose response, biochemical, C. elegans, fluorescence polarization (AID 1960)
T1 sequence (Q9XUB2 whole entry): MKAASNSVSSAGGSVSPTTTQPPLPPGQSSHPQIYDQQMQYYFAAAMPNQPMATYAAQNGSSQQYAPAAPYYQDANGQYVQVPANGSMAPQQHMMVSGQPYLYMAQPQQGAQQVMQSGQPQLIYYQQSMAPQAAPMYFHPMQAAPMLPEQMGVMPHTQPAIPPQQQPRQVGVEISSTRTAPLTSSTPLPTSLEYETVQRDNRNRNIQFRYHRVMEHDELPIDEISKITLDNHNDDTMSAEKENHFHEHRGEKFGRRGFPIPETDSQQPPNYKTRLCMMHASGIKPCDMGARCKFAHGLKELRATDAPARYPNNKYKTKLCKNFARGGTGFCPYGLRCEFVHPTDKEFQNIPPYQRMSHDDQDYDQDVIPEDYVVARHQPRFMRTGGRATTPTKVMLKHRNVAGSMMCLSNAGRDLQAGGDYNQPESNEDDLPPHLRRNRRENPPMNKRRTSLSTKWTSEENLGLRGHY

[10] = biological target: T2, RNA-binding protein pos-1 (Caenorhabditis elegans, UniProt G5EF15); test: inhibitors of POS-1/mex-3 RNA binding, dose response, biochemical, fluorescence polarization (AID 1964);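 further: purified POS-1 fused to maltose binding protein made in E. coli; potency of compounds blocking POS-1 binding to fluorescent RNA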
T2 sequence (G5EF15 whole entry): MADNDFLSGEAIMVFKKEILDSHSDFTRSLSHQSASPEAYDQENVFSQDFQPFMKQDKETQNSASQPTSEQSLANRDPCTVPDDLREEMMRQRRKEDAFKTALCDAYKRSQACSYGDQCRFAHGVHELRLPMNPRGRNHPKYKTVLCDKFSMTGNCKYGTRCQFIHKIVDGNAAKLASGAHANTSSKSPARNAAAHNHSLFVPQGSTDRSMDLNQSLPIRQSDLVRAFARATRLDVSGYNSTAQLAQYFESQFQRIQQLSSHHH

[11] = biological target: T3, Protein RecA (Mycobacterium tuberculosis, UniProt P9WHJ3); test: Fluorescence Cell-Free Homogeneous Dose Retest to Identify Inhibitors of RecA-Intein Splicing Activity. [Related pubchem assays (depositor defined):AID2097, AID2223, AID489010, AID492950]; format: functional
T3 sequence (P9WHJ3 whole entry): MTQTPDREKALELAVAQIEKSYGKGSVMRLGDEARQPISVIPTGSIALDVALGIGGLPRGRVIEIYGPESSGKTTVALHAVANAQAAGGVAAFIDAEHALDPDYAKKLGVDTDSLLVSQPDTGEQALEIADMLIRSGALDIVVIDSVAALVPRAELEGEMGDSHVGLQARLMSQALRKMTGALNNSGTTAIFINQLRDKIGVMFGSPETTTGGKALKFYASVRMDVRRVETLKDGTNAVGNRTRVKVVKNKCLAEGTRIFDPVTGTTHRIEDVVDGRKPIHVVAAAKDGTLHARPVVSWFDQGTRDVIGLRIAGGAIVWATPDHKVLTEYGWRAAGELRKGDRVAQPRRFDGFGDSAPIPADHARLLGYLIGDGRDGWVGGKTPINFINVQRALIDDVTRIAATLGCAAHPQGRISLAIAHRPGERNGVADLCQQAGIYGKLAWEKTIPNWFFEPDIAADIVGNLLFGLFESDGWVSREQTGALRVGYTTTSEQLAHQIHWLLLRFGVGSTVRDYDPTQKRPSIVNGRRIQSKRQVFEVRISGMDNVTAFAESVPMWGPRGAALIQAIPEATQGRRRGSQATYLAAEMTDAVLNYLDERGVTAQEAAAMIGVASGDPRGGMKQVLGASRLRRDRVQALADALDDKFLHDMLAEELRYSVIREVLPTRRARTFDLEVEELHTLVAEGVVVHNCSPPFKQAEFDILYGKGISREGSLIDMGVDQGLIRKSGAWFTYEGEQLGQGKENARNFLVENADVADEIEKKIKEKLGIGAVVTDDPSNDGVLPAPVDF

[12] = biological target: T4, Replicative DNA helicase DnaB (Mycobacterium tuberculosis, UniProt P9WMR3); test: DnaB intein splicing inhibitors, dose response, biochemical, cell-free fluorescence (AID 449749); format: functional
T4 sequence (P9WMR3 whole entry): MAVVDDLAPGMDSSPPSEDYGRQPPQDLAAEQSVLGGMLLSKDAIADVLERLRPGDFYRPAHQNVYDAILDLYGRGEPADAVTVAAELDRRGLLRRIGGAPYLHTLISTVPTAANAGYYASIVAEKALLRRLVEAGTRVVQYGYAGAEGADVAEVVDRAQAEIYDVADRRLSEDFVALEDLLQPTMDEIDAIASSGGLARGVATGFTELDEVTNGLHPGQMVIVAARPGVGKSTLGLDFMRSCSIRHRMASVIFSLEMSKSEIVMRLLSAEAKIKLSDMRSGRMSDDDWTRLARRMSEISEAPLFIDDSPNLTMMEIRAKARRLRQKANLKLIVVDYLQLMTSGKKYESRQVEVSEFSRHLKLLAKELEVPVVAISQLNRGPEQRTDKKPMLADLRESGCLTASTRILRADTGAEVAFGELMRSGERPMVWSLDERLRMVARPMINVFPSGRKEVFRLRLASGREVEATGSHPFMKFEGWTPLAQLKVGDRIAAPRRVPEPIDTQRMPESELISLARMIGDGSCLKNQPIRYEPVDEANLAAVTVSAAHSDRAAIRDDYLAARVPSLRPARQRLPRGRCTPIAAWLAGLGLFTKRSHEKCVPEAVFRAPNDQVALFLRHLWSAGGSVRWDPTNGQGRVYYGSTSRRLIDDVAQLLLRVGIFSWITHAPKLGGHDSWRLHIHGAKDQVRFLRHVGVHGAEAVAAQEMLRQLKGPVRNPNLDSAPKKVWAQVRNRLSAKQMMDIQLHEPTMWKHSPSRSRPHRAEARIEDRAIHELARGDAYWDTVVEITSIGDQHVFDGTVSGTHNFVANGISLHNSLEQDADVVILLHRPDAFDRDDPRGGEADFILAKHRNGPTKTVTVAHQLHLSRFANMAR

[13] = biological target: Cytochrome P450 2C19 (Homo sapiens, UniProt P33261); test: Cytochrome panel assay with activity outcomes. Panel member name: p450-cyp2c19 Compounds with AC50 equal or less than 10 uM are considered active; format: functional; details: read-out: AC50
[14] = biological target: T5, Corticotropin-releasing factor receptor 2/Corticotropin-releasing factor-binding protein (Homo sapiens, UniProt P24387+Q13324); test: activators of CRF receptor 2 with binding protein – uHTS hits, confirmation (AID 602473); format: functional; details: read-out: EC50_Mean
T5 sequence (Q13324 whole entry): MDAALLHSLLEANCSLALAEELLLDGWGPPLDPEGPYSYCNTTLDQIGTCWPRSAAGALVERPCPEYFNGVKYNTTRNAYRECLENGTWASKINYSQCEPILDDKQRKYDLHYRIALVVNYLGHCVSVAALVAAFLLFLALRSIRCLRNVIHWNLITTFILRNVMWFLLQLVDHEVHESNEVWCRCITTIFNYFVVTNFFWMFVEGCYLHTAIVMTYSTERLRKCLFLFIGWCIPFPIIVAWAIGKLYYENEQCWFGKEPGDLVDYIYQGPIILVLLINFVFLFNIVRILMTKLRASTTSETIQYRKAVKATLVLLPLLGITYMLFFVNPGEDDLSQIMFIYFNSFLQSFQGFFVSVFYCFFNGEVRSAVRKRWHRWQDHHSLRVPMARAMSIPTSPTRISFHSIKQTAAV
T5 sequence (P24387 whole entry): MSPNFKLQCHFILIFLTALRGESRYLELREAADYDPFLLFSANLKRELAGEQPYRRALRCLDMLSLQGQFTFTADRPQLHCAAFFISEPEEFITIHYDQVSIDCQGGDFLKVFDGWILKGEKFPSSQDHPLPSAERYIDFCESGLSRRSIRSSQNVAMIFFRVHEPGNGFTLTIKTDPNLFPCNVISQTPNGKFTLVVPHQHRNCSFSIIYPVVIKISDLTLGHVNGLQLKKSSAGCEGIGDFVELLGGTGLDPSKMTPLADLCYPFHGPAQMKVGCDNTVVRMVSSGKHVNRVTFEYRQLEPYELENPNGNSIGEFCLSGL

Chain of Cytochrome P450 2C19 (P33261 whole entry): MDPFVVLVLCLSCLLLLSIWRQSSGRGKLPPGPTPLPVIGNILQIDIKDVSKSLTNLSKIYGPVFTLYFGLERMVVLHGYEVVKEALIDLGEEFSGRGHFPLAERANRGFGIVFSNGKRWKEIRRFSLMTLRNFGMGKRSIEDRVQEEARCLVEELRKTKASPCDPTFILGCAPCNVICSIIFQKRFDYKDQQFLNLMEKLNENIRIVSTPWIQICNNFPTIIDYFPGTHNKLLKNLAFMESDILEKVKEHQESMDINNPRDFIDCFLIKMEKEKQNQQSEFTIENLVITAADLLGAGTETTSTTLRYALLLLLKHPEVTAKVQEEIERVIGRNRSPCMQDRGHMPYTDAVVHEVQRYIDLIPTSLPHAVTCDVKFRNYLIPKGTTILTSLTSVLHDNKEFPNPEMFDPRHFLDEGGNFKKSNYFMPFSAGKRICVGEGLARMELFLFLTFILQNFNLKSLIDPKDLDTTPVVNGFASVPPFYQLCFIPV
Chain of Cytochrome P450 3A4 (P08684 whole entry): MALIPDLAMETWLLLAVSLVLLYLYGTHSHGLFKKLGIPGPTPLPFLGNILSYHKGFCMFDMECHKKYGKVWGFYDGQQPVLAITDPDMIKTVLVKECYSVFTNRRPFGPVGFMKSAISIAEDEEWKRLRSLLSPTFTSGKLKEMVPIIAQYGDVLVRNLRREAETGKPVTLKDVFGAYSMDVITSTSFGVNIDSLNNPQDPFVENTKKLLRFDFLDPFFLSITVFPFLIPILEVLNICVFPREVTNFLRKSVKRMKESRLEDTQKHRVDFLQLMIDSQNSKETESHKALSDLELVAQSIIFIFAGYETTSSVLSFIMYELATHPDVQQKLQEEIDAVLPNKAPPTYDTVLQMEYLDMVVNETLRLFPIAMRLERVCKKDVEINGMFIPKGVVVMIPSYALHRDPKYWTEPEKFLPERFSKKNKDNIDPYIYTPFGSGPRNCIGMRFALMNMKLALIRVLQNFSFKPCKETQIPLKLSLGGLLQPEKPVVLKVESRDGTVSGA
Chain of Cytochrome P450 2C9 (P11712 whole entry): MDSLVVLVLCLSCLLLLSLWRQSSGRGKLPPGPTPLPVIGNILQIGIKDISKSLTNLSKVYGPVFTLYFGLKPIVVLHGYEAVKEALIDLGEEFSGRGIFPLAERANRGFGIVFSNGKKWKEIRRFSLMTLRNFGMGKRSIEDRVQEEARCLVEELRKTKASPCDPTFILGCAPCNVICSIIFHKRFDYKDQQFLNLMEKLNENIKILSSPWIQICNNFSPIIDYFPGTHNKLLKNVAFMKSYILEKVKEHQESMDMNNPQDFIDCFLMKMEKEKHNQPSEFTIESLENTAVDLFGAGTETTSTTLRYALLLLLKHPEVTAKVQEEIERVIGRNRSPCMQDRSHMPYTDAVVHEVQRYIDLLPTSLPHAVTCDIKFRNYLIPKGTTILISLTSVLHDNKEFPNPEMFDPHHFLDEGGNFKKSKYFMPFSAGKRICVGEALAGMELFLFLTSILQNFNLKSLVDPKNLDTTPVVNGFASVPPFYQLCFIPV

| SMILES | EC50 [4] | EC50 [5] | EC50 [6] | AC50 [7] | also measured |
| --- | --- | --- | --- | --- | --- |
| CC(C)CCn1c(N)c(S(=O)(=O)c2cccs2)c2nc3ccccc3nc21 | – | – | – | – | EC50 [1]: > 120 µM (not active); EC50 [2]: 69 µM (active); EC50 [3]: > 120 µM (not active) |
| COC(=O)c1ccc(COC(=O)c2nn(C)c(=O)c3ccccc23)cc1 | 15.6 µM (active) | 14.1 µM (active) | > 120 µM (not active) | – | – |
| Cc1nn(C)c(C)c1CNC(=O)c1cnn2c1NC(c1ccccc1)CC2C(F)(F)F (centres undefined) | – | – | – | 15.8 µM (inconclusive) | – |
| CCOC(=O)N1CCC(NC(=O)c2ccc3c(c2)sc2nc(-c4cccc(OC)c4)cn23)CC1 | 28.6 µM (active) | 12.6 µM (active) | 7.29 µM (active) | – | – |
| CC(C)[C@@H]1NC(=O)[C@H](CCCCN)NC(=O)[C@H](Cc2c[nH]c3ccccc23)NC(=O)[C@H](Cc2ccc(O)cc2)NC(=O)[C@H](C)N(C)C(=O)[C@H](Cc2ccccc2)NC1=O | – | – | – | 25.1 µM (inconclusive) | – |
| COc1cc(N=C(S)N2CCOCC2)c(OC)cc1Cl | > 120 µM (not active) | > 120 µM (not active) | > 120 µM (not active) | – | – |
| COC(=O)c1cnn(-c2nc(-c3ccccc3)cs2)c1N | 0.585 µM (active) | 72.2 µM (active) | > 120 µM (not active) | – | – |
| O=C(OCc1nc2ccccc2[nH]1)C12CC3CC(CC(C3)C1)C2 | – | – | – | 14.1 µM (inconclusive) | AC50 [8]: 1.12 µM (inconclusive) |
| O=C(CCN1CCN(CC(=O)Nc2ccccc2Cl)CC1)Nc1ccccc1F | – | – | – | 10 µM (inconclusive) | AC50 [8]: 20 µM (inconclusive) |
| COC(=O)c1cc(CSc2nc3ccccc3[nH]2)oc1C | 12.8 µM (active) | 31.9 µM (active) | – | – | – |
| C=CCOc1ccc(C(=O)C2=C(O)C(=O)N(CCCn3ccnc3)C2c2cccs2)cc1 (centres undefined) | > 120 µM (not active) | 12 µM (active) | > 120 µM (not active) | – | – |
| O=C(CSCc1c(Cl)cccc1Cl)NCC1CCCO1 (centres undefined) | – | – | – | – | EC50 [9]: > 300 µM (not active); EC50 [10]: > 300 µM (not active) |
| CCC(C)N1C(=O)/C(=C\NNc2nc3c(c(=O)n(C)c(=O)n3C)n2C)C(=O)NC1=S (centres undefined) | – | – | – | – | EC50 [9]: 38.6 µM (active); EC50 [10]: > 300 µM (not active) |
| N#CC(C#N)=Cc1ccc(-c2ccccc2)o1 | – | – | – | – | EC50 [9]: 22.5 µM (inconclusive); EC50 [10]: 6.78 µM (inconclusive) |
| Cc1cc(/C=C2\C(=O)NC(=O)N(Cc3ccco3)C2=O)c(C)n1-c1ccc(C(=O)O)cc1 | – | – | – | – | EC50 [9]: > 300 µM (inconclusive) |
| O=C(Nc1cccc(OC(=O)c2ccco2)c1)c1ccco1 | – | – | – | 25.1 µM (inconclusive) | EC50 [11]: 10.1 µM (active); AC50 [12]: 21.4 µM (active) |
| O=C(c1cc(C(F)(F)F)cc(C(F)(F)F)c1)N1CCC2(CCCN(Cc3ccncc3)C2)CC1 | – | – | – | 7.94 µM (inconclusive) | AC50 [13]: 25.1 µM (inconclusive); AC50 [8]: 10 µM (inconclusive) |
| Cc1ccc2nc(-c3ccc(S(=O)(=O)N4CCCCC4)cc3)cn2c1 | > 120 µM (not active) | 24.4 µM (active) | 14.9 µM (active) | – | – |
| Cc1cc(C)cc(NS(=O)(=O)c2ccc3ncc(C(=O)N4CCc5ccccc54)c(O)c3c2)c1 | – | – | – | – | EC50 [14]: > 53 µM (inactive) |
| CC1CC1C(=O)OCC(=O)NC(=O)NC12CC3CC(CC(C3)C1)C2 (centres undefined) | 13.1 µM (active) | 21.1 µM (active) | 15.4 µM (active) | – | – |
| COC(=O)C1=C(NC(=O)c2cccs2)CCS1 | – | – | – | 39.8 µM (inconclusive) | AC50 [13]: 17.8 µM (inconclusive) |
| N#Cc1cccc(-c2nc(NCc3cccnc3)c3ccccc3n2)c1 | – | – | – | 1.58 µM (inconclusive) | – |
| C/C(=N\NC(N)=O)c1ccc(Cl)cc1 | – | – | – | 2 µM (inconclusive) | AC50 [13]: 31.6 µM (inconclusive) |
| CC1CCCC(/C=N/c2ccc3c(c2)OCO3)=C1O (centres undefined) | 13.7 µM (active) | 16.1 µM (active) | 39.1 µM (active) | – | – |
